Source: US20180110754A1, “CENICRIVIROC FOR THE TREATMENT OF FIBROSIS” (Tobira Therapeutics, Inc., priority 2015, published 2018)
Where two headings read alike, the source gives them in different places.

Conditions: for SAE: Suicidal ideation, n subjects: through Week 48
Description: Subjects with a history of HIV-2, hepatitis B and/or C, cirrhosis of the liver or any known active or chronic active liver disease were excluded from the study.
Most AEs were mild or moderate (Grade 1 or Grade 2). […] None of the Grade ≥3 AEs (preferred terms) were reported in more than 1 subject.

CCCCOCCOc1ccc(-c2ccc3c(c2)/C=C(/C(=O)Nc2ccc([S@@+]([O-])Cc4cncn4CCC)cc2)CCCN3CC(C)C)cc1 [CVC, (S)-8-[4-(2-Butoxyethoxy)phenyl]-1-isobutyl-N-(4-{[(1-propyl-1H-imidazol-5-yl)methyl]sulfinyl}phenyl)-1,2,3,4-tetrahydro-1-benzazocine-5-carboxamide]
Deaths (All CVC (N = 115)): 0 n
SAE: Suicidal ideation, n subjects (All CVC (N = 115), EFV (N = 28)): 0
Grade 3 or 4 AE: Suicidal ideation, n subjects (All CVC (N = 115), EFV (N = 28; Grade 4 event)): 0
Any AE, n subjects (CVC 100 mg (N = 58)): 51
Any Grade 3 AE, n subjects (CVC 100 mg (N = 58)): 2
Any Grade 4 AE, n subjects (CVC 100 mg (N = 58)): 0
Deaths (CVC 100 mg (N = 58)): 0 n
Grade 3 or 4 AE: Abdominal pain, n subjects (CVC 100 mg (N = 58)): 1
Grade 3 or 4 AE: Blindness unilateral, n subjects (CVC 100 mg (N = 58)): 0
Grade 3 or 4 AE: Blood creatine phosphokinase increased, n subjects (CVC 100 mg (N = 58)): 0
Grade 3 or 4 AE: Cardiac disorders, n subjects (CVC 100 mg (N = 58)): 1
Grade 3 or 4 AE: Corneal infection, n subjects (CVC 100 mg (N = 58)): 0
Grade 3 or 4 AE: Suicidal ideation, n subjects (CVC 100 mg (N = 58)): 0
SAE: Suicidal ideation, n subjects (CVC 100 mg (N = 58)): 0
Any AE, n subjects (CVC 200 mg (N = 57)): 48
Any Grade 3 AE, n subjects (CVC 200 mg (N = 57)): 3
Any Grade 4 AE, n subjects (CVC 200 mg (N = 57)): 0
Deaths (CVC 200 mg (N = 57)): 0 n
Grade 3 or 4 AE: Abdominal pain, n subjects (CVC 200 mg (N = 57)): 0
Grade 3 or 4 AE: Blindness unilateral, n subjects (CVC 200 mg (N = 57)): 1
Grade 3 or 4 AE: Blood creatine phosphokinase increased, n subjects (CVC 200 mg (N = 57)): 1
Grade 3 or 4 AE: Cardiac disorders, n subjects (CVC 200 mg (N = 57)): 0
Grade 3 or 4 AE: Corneal infection, n subjects (CVC 200 mg (N = 57)): 1
Grade 3 or 4 AE: Suicidal ideation, n subjects (CVC 200 mg (N = 57)): 0
SAE: Suicidal ideation, n subjects (CVC 200 mg (N = 57)): 0
Grade 3 or 4 AE: Blood creatine phosphokinase increased, n subjects (human, in vivo, 48 week): 1
Grade 3 or 4 AE: Cardiac disorders, n subjects (human, in vivo, 48 week): 1
Grade 3 or 4 AE: Depression, n subjects (human, in vivo, 48 week): 0
Grade 3 or 4 AE: Ear and labyrinth disorders, n subjects (human, in vivo, 48 week): 0
Grade 3 or 4 AE: Investigations, n subjects (human, in vivo, 48 week): 1
Grade 3 or 4 AE: Palpitations, n subjects (human, in vivo, 48 week): 1
Grade 3 or 4 AE: Psychiatric disorders, n subjects (human, in vivo, 48 week): 1
Grade 3 or 4 AE: Stress, n subjects (human, in vivo, 48 week): 1
Grade 3 or 4 AE: Weight decreased, n subjects (human, in vivo, 48 week): 0
AE Abnormal dreams, n subjects (human, in vivo, 48 weeks): 9
AE Depression, n subjects (human, in vivo, 48 weeks): 3
AE Diarrhoea, n subjects (human, in vivo, 48 weeks): 17
AE Dizziness, n subjects (human, in vivo, 48 weeks): 11
AE Fatigue, n subjects (human, in vivo, 48 weeks): 14
AE Headache, n subjects (human, in vivo, 48 weeks): 16
AE Insomnia, n subjects (human, in vivo, 48 weeks): 7
AE Lymphadenopathy, n subjects (human, in vivo, 48 weeks): 7
AE Nasopharyngitis, n subjects (human, in vivo, 48 weeks): 10
AE Nausea, n subjects (human, in vivo, 48 weeks): 18
AE Rash, n subjects (human, in vivo, 48 weeks): 14
AE Syphilis, n subjects (human, in vivo, 48 weeks): 1
AE Upper respiratory tract infection, n subjects (human, in vivo, 48 weeks): 18
AE leading to discontinuation: Abnormal dreams, n subjects (human, in vivo, 48 weeks): 0
AE leading to discontinuation: Aggression, n subjects (human, in vivo, 48 weeks): 1
AE leading to discontinuation: Anxiety, n subjects (human, in vivo, 48 weeks): 0
AE leading to discontinuation: Depression, n subjects (human, in vivo, 48 weeks): 1
AE leading to discontinuation: Dermatitis allergic, n subjects (human, in vivo, 48 weeks): 0
AE leading to discontinuation: Disturbance in attention, n subjects (human, in vivo, 48 weeks): 0
AE leading to discontinuation: Dizziness, n subjects (human, in vivo, 48 weeks): 0
AE leading to discontinuation: Ear and labyrinth disorders, n subjects (human, in vivo, 48 weeks): 0
AE leading to discontinuation: Eye disorders, n subjects (human, in vivo, 48 weeks): 0
AE leading to discontinuation: Gastrointestinal disorders, n subjects (human, in vivo, 48 weeks): 0
AE leading to discontinuation: General disorders and administration site conditions, n subjects (human, in vivo, 48 weeks): 1
AE leading to discontinuation: Hypoaesthesia, n subjects (human, in vivo, 48 weeks): 0
AE leading to discontinuation: Insomnia, n subjects (human, in vivo, 48 weeks): 0
AE leading to discontinuation: Malaise, n subjects (human, in vivo, 48 weeks): 1
AE leading to discontinuation: Musculoskeletal and connective tissue disorders, n subjects (human, in vivo, 48 weeks): 0
AE leading to discontinuation: Musculoskeletal discomfort, n subjects (human, in vivo, 48 weeks): 0
AE leading to discontinuation: Nausea, n subjects (human, in vivo, 48 weeks): 0
AE leading to discontinuation: Nervous system disorders, n subjects (human, in vivo, 48 weeks): 0
AE leading to discontinuation: Photophobia, n subjects (human, in vivo, 48 weeks): 0
AE leading to discontinuation: Psychiatric disorders, n subjects (human, in vivo, 48 weeks): 1
AE leading to discontinuation: Rash, n subjects (human, in vivo, 48 weeks): 0
AE leading to discontinuation: Skin and subcutaneous tissue disorders, n subjects (human, in vivo, 48 weeks): 0
AE leading to discontinuation: Tachyphrenia, n subjects (human, in vivo, 48 weeks): 0
AE leading to discontinuation: Thinking abnormal, n subjects (human, in vivo, 48 weeks): 1
